Reference: patent US9656984B2, “PI3K/AKT/mTOR inhibitors and pharmaceutical uses thereof” (UNIVERSITE DE RENNES 1, priority 2013, dated 2017)

Test system: PI3K/AKT activity (AKT phosphorylation)
Assay: PI3K/AKT/mTOR pathway inhibitory activity: level of AKT phosphorylation in CEM cells over time
Format: cell-based, human
Settings: 10 μM, FIGS. 7 and 8
Method: The CEM cell was incubated with 10 μM of each mentioned compound of formula (I) for the indicated times and then cells were lysed and 100 μg of protein was loaded per line and resolved by SDS-PAGE. The levels of AKT phosphorylation (hallmark of PI3K activation) and total AKT (loading control) were analyzed by Western blot and the amount of AKT phosphorylation relative to the total amount of protein AKT was quantified by densitometric analysis, the intensity of each band was scanned and the level of AKT phosphorylation was reported to the amount of whole AKT and the percentage of phosphorylated-AKT was depicted.
Immunoblots Excepted for immunoprecipitation experiments in which cells were lyzed with RIPA buffer, cells were lyzed for 30 min at 4° C. in Lysis buffer (25 mM HEPES pH 7.4, 1% v/v Triton X-100, 150 mM NaCl, 2 mM EGTA supplemented with a mix of protease inhibitors). Protein concentration was determined by the bicinchoninic acid method (Pierce, Rockford, Ill., USA) according to the manufacturer's protocol. Proteins were resolved by 8, 10 or 12% SDS-PAGE and transferred to a nitrocellulose membrane (GE Healthcare, Buckinghamshire, UK). The membrane was blocked 15 min with TBST (50 mM Tris, 160 mM NaCl, 0.05% v/v Tween 20, pH 7.4) containing 5% w/v dried skimmed milk (TBS™). Primary antibody was incubated overnight at 4° C. in TBS™. The membrane was intensively washed (TBST) and then the peroxydase-labeled anti-mouse IgG1 or IgG2a (CliniSciences, Nanterre, France) was added for 45 min. Proteins were visualized with the enhanced chemiluminescence substrate kit (ECL RevelBIOt®, Ozyme, Saint Quentin en Yvelines, France).

## O=[N+]([O-])C1=Cc2cc(Br)cc(Br)c2OC1c1ccc(Br)cc1 (stereo not shown) [Compound 25, 6,8-dibromo-2-(4-bromo-phenyl)-3-nitro-2H-chromene]
  inhibitory activity on PI3K/AKT (level of AKT phosphorylation): very strong inhibitors
